“Also recorded” adds a separate entry of the source.
How the values were obtained:
Type in all cases: physicochemical
[1] = Volatilization measurements (ammonia release, 2 L diffusion kit, Draeger tube); settings: YaraVera Amidas product comprising 462 ppm nBTPT, treated with stabilizer (FIG. 1, Table 1)
Source text: Through the lid, a […] tube is placed for the measurement of vol % ammonia. The […] tube turns from yellow to bleu/purple when ammonia is absorbed by the tube. The amount of vol % ammonia released can be followed in time. Experiment 1 defines the problem.

[2] = nBTPT stability on YaraVera Amidas (UAS) product during storage, HPLC analysis of nBTPT content
Method: For lab scale experiments, 1.2 kg of solid fertilizer material was added to a lab scale drum. […] A residence time of 10 minutes was applied and the rotating speed of the drum was consequently the same in each experiment. […] Before use, the moisture-repellent coating was preheated to 80° C. Larger scale experiments with amounts up to 40 kg of fertilizer material were performed in a concrete mixer. The samples were stored under several conditions, dependent on the type of samples: • Bagged at room temperature (18-25° C.) • Bagged at 40° C. • Open to air at room temperature (18-25° C.) […]

pH of MgSO4 grades = assay: pH of MgSO4 grades

[O]=[Ca] [CaO, calcium oxide]
Ammonia release [1]: producing ammonia

O=S(=O)([O-])[O-].[Ca+2] [CaSO4]
Ammonia release [1]: no ammonia release

[O]=[Mg] [MgO, magnesium oxide, reference compound]
Ammonia release [1]: producing ammonia
Stability of nBTPT (stabilizing effect) ([2]; YaraVera Amidas with 462 ppm nBTPT, MgSO4/MgO combinations (FIG. 4)): more effective than CaO

O=S(=O)([O-])[O-].[Mg+2] [MgSO4 99.5%]
pH (pH of MgSO4 grades): 8.5

O=S(=O)([O-])[O-].[Mg+2] [MgSO4 99.999%]
pH (pH of MgSO4 grades): 6.1

O=S(=O)([O-])[O-].[Mg+2] [MgSO4, magnesium sulphate]
Ammonia release [1]: no ammonia release; also recorded: no ammonia is generated
Stability of nBTPT (stabilizing effect) ([2]; UAS with 462 ppm nBTPT, open to air at room temperature 40 days (FIG. 2A) and in bags at 40° C. 8 days (FIG. 2B)): comparable with the effect of the prior art compound (CaO)
Stabilizing effect ([2]; more than 1 weight % magnesium sulphate in the composition): did not produce a proportionally better stabilizing effect

O=S(=O)([O-])[O-].[Na+].[Na+] [Na2SO4, reference compound]
Stability of nBTPT (stabilizing effect) ([2]; YaraVera Amidas with 462 ppm nBTPT, open plastic containers at room temperature for 21 days (FIG. 3)): negative effect on the stability of nBTPT
